pIC50: −log10 of the molar value. Counter-ions that a name gives are not always drawn.
Assays:
Sterol Biosynthesis = assay: Assay of sterol biosynthesis in rats (inhibition of cholesterol biosynthesis); assay type: in vivo; details: female Sprague-Dawley rats, liver; for inhibition at 30 mg/kg: po, vs vehicle-treated controls; for inhibition at 30 mg/kg / Inhibition of cholesterol biosynthesis (N.E.; no effect at a dose in the parentheses): 30 mg/kg p.o.
[1] = target: T1, Squalene Synthase in Rat Liver Microsomes (Rattus norvegicus, UniProt Q02769); assay: Assay of squalene synthase (SQS) in rat liver microsomes; assay type: biochemical, male Sprague-Dawley rat; details: for pIC50: 2.5 μM FPP, pH 7.4, 30 min at 37° C., read-out: Inhibition of SQS IC50; for Inhibition of SQS (N.E.; no effect at a dose in the parentheses): at 10^-5 M
T1 construct: microsomes were prepared from male Sprague-Dawley rat; from tissue; host or cells: rat liver microsomes (male Sprague-Dawley)
T1 sequence (Q02769 1-416): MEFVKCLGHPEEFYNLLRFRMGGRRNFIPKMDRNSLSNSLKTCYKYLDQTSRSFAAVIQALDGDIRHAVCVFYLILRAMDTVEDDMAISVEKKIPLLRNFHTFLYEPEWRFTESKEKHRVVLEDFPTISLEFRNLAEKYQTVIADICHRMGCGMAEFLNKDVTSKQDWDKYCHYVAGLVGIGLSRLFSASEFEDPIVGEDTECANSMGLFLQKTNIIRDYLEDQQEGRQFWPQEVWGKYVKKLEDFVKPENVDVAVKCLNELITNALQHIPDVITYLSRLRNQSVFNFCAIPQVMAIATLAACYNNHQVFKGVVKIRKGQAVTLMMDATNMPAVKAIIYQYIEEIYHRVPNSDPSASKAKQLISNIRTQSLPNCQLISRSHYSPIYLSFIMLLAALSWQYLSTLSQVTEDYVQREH
Description: 1. Assay of Squalene Synthase in Rat Liver Microsomes Squalene synthase assay was performed in accordance with the method described by [NT] (Biochem. Pharmacol., 51, 1477 (1996)). That is to say, microsomes were prepared from male Sprague-Dawley rat (weight range 250-300 g) by homogenising in 50 mM phosphate buffer, pH 7.4, 5.0 mM MgCl2, 1.0 mM EDTA, and 1.0 mM dithiothreitol using a polytron (Kinetica, Sweden). The homogenates were centrifuged at 10,000 g for 20 min at 4° C., and, after spinning the supernatants were poured into the tube through cotton gauze. Microsomes were then isolated from the supernatant by centrifugation at 178,000 g for 90 min at 4° C. Microsomes were then resuspended in homogenisation buffer and stored in aliquots at -80° C. until use. For in vitro studies, the compounds were dissolved in DMSO. The squalene synthase reaction system in a volume of 100 μl contained 50 mM phosphate buffer, pH 7.4, 5.0 mM MgCl2, 10 mM KF, 0.5 mM NADPH, 50 mM ascorbic acid, 20U /ml ascorbate oxidase, 2.5 μM farnesyl-pyrophosphate (FPP) and microsomes, 40 μg/ml. The compounds (in 1 μl DMSO), microsomes (in 10 μl buffer) and other reagent ([…]) were pre-incubated for 5 min at 37° C. The reactions were started by the addition of 5 μl of an aqueous solution of FPP containing about 0.1 μCi of [H] FPP; incubations were at 37° C. for 30 min. The reactions were then stopped by the addition of 50 μl of 20% KOH in 50% ethanol. […] The IC50 values were calculated.

`C#Cc1ccc(OCCCN2C(=O)C3CCC2CC3)cc1` [Compound 5, 2-[3-(4-ethynylphenoxy)propane-1-yl]-2-azabicyclo[2.2.2]octane-3-one] showed an ED50 (Sterol Biosynthesis; Rattus norvegicus, oral gavage, [H] mevalonolactone i.p. after 1 hr) of 13.4 mg/kg and a pIC50 [1] of 7.96.

Molecule `CCOC(=O)C#Cc1ccc(OCCCN2C(=O)C3CCC2CC3)cc1` [Compound 6, Ethyl 4-[3-(3-oxo-2-azabicyclo[2.2.2]octan-2-yl)propoxy]phenylpropiolate] has a pIC50 [1] of 5.51.

`O=C(O)C#Cc1ccc(OCCCN2C(=O)C3CCC2CC3)cc1` [Compound 7, 4-[3-(3-oxo-2-azabicyclo[2.2.2]octan-2-yl)propoxy]phenylpropiolic acid] gave a pIC50 [1] of 6.31.

Work on `C#Cc1ccc(OCCCN2CC3CCC2CC3)cc1` [Compound 10, 2-[3-(4-ethynylphenoxy)propane-1-yl]-2-azabicyclo[2.2.2]octane hydrochloride] yielded an inhibition at 30 mg/kg (Sterol Biosynthesis; Rattus norvegicus) of 48.6% and a pIC50 [1] of 7.72.

With `CCOC(=O)C#Cc1ccc(OCCCN2CC3CCC2CC3)cc1` [Compound 12, Ethyl 4-[3-(2-azabicyclo[2.2.2]octan-2-yl)propoxy]phenylpropiolate hydrochloride] the pIC50 [1] was 7.19.

With `C#Cc1ccc(OCCN2C(=O)C3CCC2CC3)cc1` [Compound 13, 2-[2-(4-ethynylphenoxy)ethyl]-2-azabicyclo[2.2.2]octane-3-one] the inhibition at 30 mg/kg (Sterol Biosynthesis; Rattus norvegicus) was 30.3% and the “Inhibition of SQS (N.E.; no effect at a dose in the parentheses)” value [1] was “N.E”.

`C#Cc1ccc(OCCCCN2C(=O)C3CCC2CC3)cc1` [Compound 14, 2-[4-(4-ethynylphenoxy)butane-1-yl]-2-azabicyclo[2.2.2]-octane-3-one] showed a pIC50 [1] of 6.31.

Molecule `CCOC(=O)c1ccc(C#Cc2ccc(OCCCN3C(=O)C4CCC3CC4)cc2)cc1` [Compound 15, Ethyl 4-[4-[3-(3-oxo-2-azabicyclo[2.2.2]octan-2-yl)propoxy]phenylethynyl]-benzoate] has a pIC50 [1] of 6.39.

`O=C(O)c1ccc(C#Cc2ccc(OCCCN3C(=O)C4CCC3CC4)cc2)cc1` [Compound 16, 4-[4-[3-(3-oxo-2-azabicyclo[2.2.2]octan-2-yl)propoxy]phenylethynyl]-benzoic acid] was tested, and the “Inhibition of cholesterol biosynthesis (N.E.; no effect at a dose in the parentheses)” value (Sterol Biosynthesis) was “N.E” and the pIC50 [1] was 7.64.

In the case of `Cl.O=C(O)c1ccc(C#Cc2ccc(OCCCN3CC4CCC3CC4)cc2)cc1` [Compound 19, 4-[4-[3-(2-azabicyclo[2.2.2]octan-2-yl)propoxy]phenylethynyl]-benzoic acid hydrochloride], the “Inhibition of cholesterol biosynthesis (N.E.; no effect at a dose in the parentheses)” value (Sterol Biosynthesis) was “N.E” and the pIC50 [1] was 7.41.

For `CCOC(=O)c1ccc(C#Cc2ccc(OCCCN3CC4CCC3CC4)cc2)cc1` [Compound 20, Ethyl 4-[4-[3-(2-azabicyclo[2.2.2]octan-2-yl)propoxy]phenylethynyl]-benzoate hydrochloride], the pIC50 [1] was 6.16.

Work on `O=C(O)c1ccc(C#Cc2ccc(OCCCN3C(=O)C4CCC3CC4)cc2)s1` [Compound 21, 5-[4-[3-(3-oxo-2-azabicyclo[2.2.2]octan-2-yl)propoxy]phenylethynyl]-thiophene-2-carboxylic acid] yielded a pIC50 [1] of 7.25.

Molecule `O=C1C2CCC(CC2)N1CCCOc1ccc(C#Cc2cccc3ncccc23)cc1` [Compound 22, 2-[3-[4-(quinolin-5-yl-ethynyl)phenoxy]propan-1-yl]-2-azabicyclo[2.2.2]-octan-3-one hydrochloride] has an inhibition at 30 mg/kg (Sterol Biosynthesis; Rattus norvegicus) of 25.1% and a pIC50 [1] of 7.82.

Molecule `O=C1C2CCC(CC2)N1CCCOc1ccc(C#Cc2ccc(-c3cccc4ncccc34)cc2)cc1` [Compound 23, 2-[3-[4-[4-(quinolin-5-yl)phenylethynyl]phenoxy]propan-1-yl]-2-azabicyclo[2.2.2]octan-3-one hydrochloride] has an inhibition at 30 mg/kg (Sterol Biosynthesis; Rattus norvegicus) of 46.7% and a pIC50 [1] of 7.16.

In the case of `O=C1C2CCC(CC2)N1CCCOc1ccc(C#Cc2ccc(N3C(=O)C4CCC3CC4)cc2)cc1` [Compound 24, 2-[3-[4-[4-(3-oxo-2-azabicyclo[2.2.2]octan-2-yl)phenylethynyl]phenoxy]propan-1-yl]-2-azabicyclo[2.2.2]octan-3-one], the pIC50 [1] was 4.25.

With `C(#Cc1cccc2ncccc12)c1ccc(OCCCN2CC3CCC2CC3)cc1` [Compound 25, 2-[3-[4-(quinolin-5-yl-ethynyl)phenoxy]propan-1-yl]-2-azabicyclo[2.2.2]-octane dihydrochloride] the pIC50 [1] was 7.51.

For `C#Cc1ccc(OCCCN2C(=O)C3CCC2CC3)c(CC=C)c1` [Compound 37, 2-[3-[(2-allyl-4-ethynyl)phenoxy]propane-1-yl]-2-azabicyclo[2.2.2]oct-3-one], the “Inhibition of SQS (N.E.; no effect at a dose in the parentheses)” value [1] was “N.E”.

`C#Cc1ccc(OCCCN2CC3CCC2CC3)c(CC=C)c1` [Compound 38, 2-[3-[(2-Allyl-4-ethynyl)phenoxy]propane-1-yl]-2-azabicyclo[2.2.2]octane hydrochloride] gave an inhibition at 30 mg/kg (Sterol Biosynthesis; Rattus norvegicus) of 50.4% and a pIC50 [1] of 7.96.
